This note sets out measurements from patent US9144239B2, “Macrocyclic picolinamides as fungicides” (DOW AGROSCIENCES LLC, priority 2012, dated 2015).

Read-outs that look alike come from different tables or passages of the source.

Experiment [1] concerns Puccinia triticina; synonym: Puccinia recondita f. sp. tritici. Put plainly: Fungicidal activity: wheat brown rust (PUCCRT), wheat seedlings. Type of experiment: in vivo. Conditions: 100 ppm, wheat. The protocol:
Technical grades of materials were dissolved in acetone, which were then mixed with nine volumes of water containing 110 ppm Triton X-100. The fungicide solutions were applied onto wheat seedlings using an automated booth sprayer to run-off. All sprayed plants were allowed to air dry prior to further handling. Wheat plants (variety Yuma) were grown from seed in a greenhouse in 50% mineral soil/50% soil-less Metro mix until the first leaf was fully emerged, with 7-10 seedlings per pot. These plants were inoculated with an aqueous spore suspension of Septoria tritici either prior to or after fungicide treatments. After inoculation the plants were kept in 100% relative humidity (one day in a dark dew chamber followed by two to three days in a lighted dew chamber at 20° C.) to permit spores to germinate and infect the leaf. The plants were then transferred to a greenhouse set at 20° C. for disease to develop. When disease symptoms were fully expressed on the 1st leaves of untreated plants, infection levels were assessed on a scale of 0 to 100 percent disease severity. Percent disease control was calculated using the ratio of disease severity on treated plants relative to untreated plants. Evaluation of Fungicidal Activity: Wheat Brown Rust (Puccinia […]; Synonym: Puccinia recondita f. Sp. Tritici; Bayer Code PUCCRT) Wheat plants (variety Yuma) were grown from seed in a greenhouse in 50% mineral soil/50% soil-less Metro mix until the first leaf was fully emerged, with 7-10 seedlings per pot. These plants were inoculated with an aqueous spore suspension of Puccinia triticina either prior to or after fungicide treatments. After inoculation the plants were kept in a dark dew room at 22° C. with 100% relative humidity overnight to permit spores to germinate and infect the leaf. The plants were then transferred to a greenhouse set at 24° C. for disease to develop. Fungicide formulation, application and disease assessment followed the procedures as described in the Example A.

Experiment [2] relates to Mycosphaerella graminicola; anamorph: Septoria tritici. Put plainly: Fungicidal activity: leaf blotch of wheat (SEPTTR), wheat seedlings. Conditions: Zymoseptoria tritici, 100 ppm, wheat. It is filed as in vivo. The protocol:
Evaluation of Fungicidal Activity: Leaf Blotch of Wheat (Mycosphaerella Graminicola; Anamorph: Septoria tritici; Bayer Code […]) Technical grades of materials were dissolved in acetone, which were then mixed with nine volumes of water containing 110 ppm Triton X-100. The fungicide solutions were applied onto wheat seedlings using an automated booth sprayer to run-off. All sprayed plants were allowed to air dry prior to further handling. Wheat plants (variety Yuma) were grown from seed in a greenhouse in 50% mineral soil/50% soil-less Metro mix until the first leaf was fully emerged, with 7-10 seedlings per pot. These plants were inoculated with an aqueous spore suspension of Septoria tritici either prior to or after fungicide treatments. After inoculation the plants were kept in 100% relative humidity (one day in a dark dew chamber followed by two to three days in a lighted dew chamber at 20° C.) to permit spores to germinate and infect the leaf. The plants were then transferred to a greenhouse set at 20° C. for disease to develop. When disease symptoms were fully expressed on the 1st leaves of untreated plants, infection levels were assessed on a scale of 0 to 100 percent disease severity. Percent disease control was calculated using the ratio of disease severity on treated plants relative to untreated plants.

The mark [3] stands for this setting: 24 h, 1 Day Protectant, read-out: Disease Control PUCCRT 1DP.
The mark [4] stands for this setting: 72 h, 3 Day Curative, read-out: Disease Control PUCCRT 3DC.
Where [5] appears, read: 24 h, 1 Day Protectant, read-out: Disease Control SEPTTR 1DP.
Setting [6] is: 72 h, 3 Day Curative, read-out: Disease Control SEPTTR 3DC.

Take `COc1ccnc(C(=O)N[C@H]2COC[C@H](OCC3CC3)[C@@H](OCC3CC3)[C@H](C)OC2=O)c1OCOC(C)=O` [Compound 233]: the pest or weed control at 100 ppm fell in the range of 80 to 100% in experiment [1] (setting [3]), 80 to 100% in experiment [1] (setting [4]), 80 to 100% in experiment [2] (setting [5]) and 0 to 80% in experiment [2] (setting [6]).

For `CCOCC(=O)OCOc1c(OC)ccnc1C(=O)N[C@H]1COC[C@H](Oc2ccc(C)cc2)[C@@H](Oc2ccc(C)cc2)[C@H](C)OC1=O` [Compound 225], the pest or weed control at 100 ppm in experiment [1] (setting [3]), in experiment [1] (setting [4]), in experiment [2] (setting [5]) and in experiment [2] (setting [6]) was 80 to 100% throughout.

Regarding `CCCCO[C@H]1COC[C@H](NC(=O)c2nccc(OC)c2O)C(=O)O[C@@H](C)[C@@H]1O` [Compound 42, N-((3S,7S,8S,9S)-7-butoxy-8-hydroxy-9-methyl-2-oxo-1,5-dioxonan-3-yl)-3-hydroxy-4-methoxypicolinamide], the pest or weed control at 100 ppm in experiment [1] (setting [3]) fell in the range of 80 to 100%; in experiment [1] (setting [4]), 80 to 100%; in experiment [2] (setting [5]), 0 to 80%; in experiment [2] (setting [6]) it was 0 to 80%.

For `COc1ccc(O[C@H]2[C@H](C)OC(=O)[C@@H](NC(=O)c3nccc(OC)c3O)COC[C@@H]2OC(=O)C(C)C)cc1` [Compound 199], the pest or weed control at 100 ppm in experiment [1] (setting [3]) lay within 80 to 100%; in experiment [2] (setting [5]), 0 to 80%.

Turning to `COc1ccnc(C(=O)N[C@H]2COC[C@H](OCCCc3ccccc3)[C@@H](OCCCc3ccccc3)[C@H](C)OC2=O)c1O` [Compound 59], the pest or weed control at 100 ppm in experiment [1] (setting [3]) lay within 80 to 100%; in experiment [1] (setting [4]), 80 to 100%; in experiment [2] (setting [5]), 80 to 100%; in experiment [2] (setting [6]), 0 to 80%.

In the case of `COc1ccnc(C(=O)N[C@H]2COC[C@H](OC3CCCC3)[C@@H](Oc3ccccc3)[C@H](C)OC2=O)c1O` [Compound 204], the pest or weed control at 100 ppm in experiment [1] (setting [3]), in experiment [1] (setting [4]), in experiment [2] (setting [5]) and in experiment [2] (setting [6]) was 80 to 100% throughout.

In the case of `CC[C@@H]1OC(=O)[C@@H](NC(=O)c2nccc(OC)c2OCOC(C)=O)COC[C@H](OCC(C)C)[C@H]1OCC(C)C` [Compound 23], the pest or weed control at 100 ppm in experiment [1] (setting [3]), in experiment [1] (setting [4]), in experiment [2] (setting [5]) and in experiment [2] (setting [6]) was 80 to 100% in each case.

Take `CCCCO[C@H]1COC[C@H](NC(=O)c2nccc(OC)c2OCOC(C)=O)C(=O)O[C@@H](C)[C@@H]1OCC(C)C` [Compound 50]: the pest or weed control at 100 ppm in experiment [1] (setting [3]), in experiment [1] (setting [4]), in experiment [2] (setting [5]) and in experiment [2] (setting [6]) was 80 to 100% in each case.

Regarding `COc1ccnc(C(=O)N[C@H]2CO[C@H](C)[C@H]3OC(C)(C)O[C@@H]3[C@@H](C)OC2=O)c1OCOC(C)=O` [Compound 29], the pest or weed control at 100 ppm in experiment [1] (setting [3]), in experiment [1] (setting [4]), in experiment [2] (setting [5]) and in experiment [2] (setting [6]) was 0 to 80% each time.

Turning to `CCCCO[C@H]1COC[C@H](NC(=O)c2nccc(OC)c2OCOC(C)=O)C(=O)O[C@@H](C)[C@@H]1OC` [Compound 37], the pest or weed control at 100 ppm in experiment [1] (setting [3]) lay in the range of 80 to 100%; in experiment [1] (setting [4]) it was 80 to 100%; in experiment [2] (setting [5]), 0 to 80%; in experiment [2] (setting [6]), 0 to 80%.

In the case of `COc1ccnc(C(=O)N[C@H]2COC[C@@H](OCc3ccccc3)[C@H](OCc3ccccc3)[C@H](C)OC2=O)c1O` [Compound 38], the pest or weed control at 100 ppm in experiment [1] (setting [3]) fell in the range of 80 to 100%; in experiment [1] (setting [4]), 0 to 80%; in experiment [2] (setting [5]) it was 0 to 80%; in experiment [2] (setting [6]) it was 0 to 80%.

Take `COc1ccnc(C(=O)N[C@H]2COC[C@H](OC3CCCC3)[C@@H](Oc3ccccc3)[C@H](C)OC2=O)c1OCOC(C)=O` [Compound 223]: the pest or weed control at 100 ppm in experiment [1] (setting [3]), in experiment [1] (setting [4]), in experiment [2] (setting [5]) and in experiment [2] (setting [6]) was 80 to 100% each time.

Regarding `CCCO[C@H]1[C@H](C)OC(=O)[C@@H](NC(=O)c2nccc(OC)c2O)COC[C@@H]1Oc1ccccc1` [Compound 203], the pest or weed control at 100 ppm in experiment [1] (setting [3]), in experiment [1] (setting [4]), in experiment [2] (setting [5]) and in experiment [2] (setting [6]) was 80 to 100% in each case.

For the molecule `COc1ccnc(C(=O)N[C@H]2COC[C@H](OCc3ccccc3)[C@@H](OCc3ccccc3)COC2=O)c1O` [Compound 5, N-((3S,7S,8S)-7,8-bis(benzyloxy)-2-oxo-1,5-dioxonan-3-yl)-3-hydroxy-4-methoxypicolinamide], the pest or weed control at 100 ppm in experiment [1] (setting [3]), in experiment [1] (setting [4]), in experiment [2] (setting [5]) and in experiment [2] (setting [6]) was 0 to 80% each time.

`COc1ccnc(C(=O)N[C@H]2COC[C@H](Oc3cc(C)cc(C)c3)[C@@H](Oc3cc(C)cc(C)c3)[C@H](C)OC2=O)c1O` [Compound 198]: the pest or weed control at 100 ppm was in the range of 0 to 80% in experiment [1] (setting [3]) and 80 to 100% in experiment [2] (setting [5]).

As for `COc1ccnc(C(=O)N[C@H]2COC[C@H](OCC(C)C)[C@@H](OCC(C)C)[C@@H](COCC(C)C)OC2=O)c1OCOC(C)=O` [Compound 17], the pest or weed control at 100 ppm in experiment [1] (setting [3]), in experiment [1] (setting [4]) and in experiment [2] (setting [5]) was 0 to 80% throughout.

As to `CCOCC(=O)OCOc1c(OC)ccnc1C(=O)N[C@H]1COC[C@H](Oc2ccc(F)cc2)[C@@H](OCC(C)C)[C@H](C)OC1=O` [Compound 227], the pest or weed control at 100 ppm in experiment [1] (setting [3]), in experiment [1] (setting [4]), in experiment [2] (setting [5]) and in experiment [2] (setting [6]) was 80 to 100% in each case.

Take `CCC(C)(C)O[C@H]1[C@H](C)OC(=O)[C@@H](NC(=O)c2nccc(OC)c2O)COC[C@@H]1OCC(C)C` [Compound 79]: the pest or weed control at 100 ppm in experiment [1] (setting [3]), in experiment [1] (setting [4]), in experiment [2] (setting [5]) and in experiment [2] (setting [6]) was 80 to 100% throughout.

Turning to `COc1ccnc(C(=O)N[C@H]2COC[C@H](Oc3ccccc3)[C@@H](O)[C@H](C)OC2=O)c1O` [Compound 211], the pest or weed control at 100 ppm in experiment [1] (setting [3]) and in experiment [2] (setting [6]) was 0 to 80% each time.

For the molecule `CC[C@H]1OC(=O)[C@H](NC(=O)c2nccc(OC)c2OCOC(C)=O)COC[C@H](OCC(C)C)[C@H]1OCC(C)C` [Compound 24], the pest or weed control at 100 ppm in experiment [1] (setting [3]), in experiment [1] (setting [4]), in experiment [2] (setting [5]) and in experiment [2] (setting [6]) was 0 to 80% in each case.

With `COc1ccnc(C(=O)N[C@H]2COC[C@H](OCC(C)C)[C@@H](OCC(C)C)COC2=O)c1O` [Compound 8], the pest or weed control at 100 ppm fell in the range of 0 to 80% in experiment [1] (setting [3]), 80 to 100% in experiment [1] (setting [4]), 0 to 80% in experiment [2] (setting [5]) and 0 to 80% in experiment [2] (setting [6]).

For `COc1ccnc(C(=O)N[C@H]2COC[C@H](OCc3ccccc3)[C@@H](OCc3ccccc3)[C@@H](C)OC2=O)c1OCOC(C)=O` [Compound 51], the pest or weed control at 100 ppm in experiment [1] (setting [3]), in experiment [1] (setting [4]), in experiment [2] (setting [5]) and in experiment [2] (setting [6]) was 0 to 80% throughout.

Take `COc1ccnc(C(=O)N[C@@H]2COC[C@H](OCc3ccccc3)[C@@H](OCc3ccccc3)[C@@H](C)OC2=O)c1OCOC(C)=O` [Compound 31]: the pest or weed control at 100 ppm in experiment [1] (setting [3]), in experiment [1] (setting [4]), in experiment [2] (setting [5]) and in experiment [2] (setting [6]) was 0 to 80% each time.

Consider `COc1ccnc(C(=O)N[C@@H]2COC[C@H](OCC(C)C)[C@@H](OCC(C)C)COC2=O)c1OCOC(C)=O` [Compound 14], for which the pest or weed control at 100 ppm in experiment [1] (setting [3]) lay in the range of 80 to 100%; in experiment [1] (setting [4]), 0 to 80%; in experiment [2] (setting [5]) it was 0 to 80%.
